According to patent US20240342138A1, “MICROTUBULE TARGETING AGENTS” (BPGbio, Inc., priority 2023, published 2024):

Assays:
[1] = test system: colchicine binding site of tubulin; assay: EBI labeling assay in MIA PaCa2 cells (Western blot); type: cell-based; settings: 2 hours compound, then 2 hours 100 μM EBI, FIG. 2, FIG. 3
Method: MIA PaCa2 cells were cultured in DMEM+10% FBS and 1% P/S. Cells were plated at 1.5-2×10^6 in 60 mm dishes. For drug treatments, cells were treated the day after plating with 0.1% DMSO or the compounds tested at the concentrations indicated in FIG. 2 for 2 hours.
• Cells were treated with compounds for 2 hours at 37°, 5% CO2 (in the cell culture incubator), and then for an additional 2 hours with 100 μM EBI (with compounds present) under the same conditions. • Cells were then harvested with Trypsin and pelleted at 500 g for 3 minutes. • Cells were rinsed in 1 mL PBS and transferred to clean epi tubes. […] BCA assay plates were incubated for 15 minutes in the 37-degree incubator in the outer molecular lab. • After protein normalization (including addition of reducing Laemmli buffer from a 6× stock) samples were boiled at 95 degrees for 3 minutes and frozen for subsequent Western Blotting.
Significance in difference of treated MIA PaCa-2 cells to 0.1% DMSO treated cells were tested by Student t test (* p<0.05; ** p<0.01; *** p<0.001).

[2] = test system: patient-derived organoids (PDOs); assay: Viability of patient-derived organoids of multiple tumor types (CellTiter-Glo, 5 days); type: cell-based, human
Method: PDOs were treated with Compound 1 or controls (vehicle control—0.1% DMSO, positive control—10% DMSO) for 5 days. Viability was assessed using the CellTiter-Glo® assay. IC50 and maximal (max) inhibition values were extrapolated from the viability curves. Exemplars of models deemed to be highly responsive (>60% max inhibition; A), responsive (40-60% max inhibition; B), and non-responsive (<40% max inhibition; C) to Compound 1 are shown. Summary of all models tested (D); NR (No Regression, ambiguous nonlinear regression curves or R2<0.65) and NA (Not Applicable, ambiguous maximum inhibition). Compiled data of N=4 replicates.
Potency of Compound 1 was evaluated in a panel of patient-derived organoids (PDOs) representative of multiple tumor types.
• 1. Cryopreserved samples (200-300 mg or more depending on study design) were prepared as described below. • 2. The collected tumors were dissociated manually (using a tumor mincing process previously developed) or using the Gentle MACS Dissociator and human Tumor Dissociation Kit (Miltenyi). After preparation, tumor fragments were cultured in DMEM+10% FBS+1× antibiotic/antimycotic (“anti-anti”) plus 1:500 Primocin antimicrobial agent for up to 7 days before filtering out large fragments (using a 500 μm filter followed by 200 μm filters). • 3. Flow-through was cultured in: Cell-Tak coated low volume flat-bottom 384-well assay plates. • 4. 10× concentrations of test agent (or DMSO as vehicle) was added to media in volumes that will vary depending on culturing conditions. • 5. Each group had quadruplicate wells, including 0.1% DMSO (final as vehicle) and 10% DMSO as positive control. • 6. PBS was plated in the perimeter wells to avoid edge-effect artifacts. • 7. Cells were treated for 5 days and viability read via Cell Titer Glo. Viability was quantitatively assessed via Cell Titer Glo at Day 0 (baseline), Day 6 (baseline), and Day 6 (compound treatment-full dose response). […]

A549 tumors = assay: Lung adenocarcinoma xenograft model; type: in vivo, nude mice; settings: for Highest TGI (%): Day 7
Method: FIG. 13A-13B show efficacy of Compound 1 in a lung adenocarcinoma xenograft model (A549). A) In vitro potency of Compound 1 in A549 cells as evaluated by ATPlite 1Step™ Perkin Elmer (performed by NTRC Oncolines). B) A549 cells (5×10^6) were implanted subcutaneously in athymic female nude mice and tumors were allowed to grow to a volume of ˜112 mm^3 followed by randomization of animals into three (3) groups (vehicle control, 75 mg/kg, 150 mg/kg Compound 1) with 12 animals per group. A Compound 1 solid dispersion was prepared prior to each dosing and administered by oral gavage two times a day (BID). Mean tumor volume of each group over time and the growth of tumor in each individual animal was graphed. For each individual animal of […] group TGI (%) was calculated based on the tumor growth inhibition of individual tumor at each given day of the study compared to the average of the group for that given day of the study. P-values were calculated using two-tailed distribution and two-sample equal variance (homoscedastic) for each group treated with Compound 1 for each given day of the study in reference to vehicle control. NS p>0.05; *p≤0.05; **p≤0.01; ***p p≤0.001; **** p≤0.0001.
Anti-tumor efficacy of Compound 1 was evaluated against three (3) different preclinical oncology mice models of colorectal cancer, prostate cancer, and lung adenocarcinoma (see Table 5 below). For this purpose, an oral formulation of Compound 1 was used.
A549 is a human lung adenocarcinoma cell line isolated from the lung tissue of their origin. […] A549 cells were implanted subcutaneously in nude mice and tumors were allowed to grow to an average volume of 112 mm^3 followed by randomization into three (3) groups consisting of vehicle control, 75 mg/kg and 150 mg/kg Compound 1 (12 animals per group). A Compound 1 solid dispersion was administered by oral gavage two times a day (BID). All animals remained in the study until Day 28 except one animal from Group 3 (Animal #29), which exited the study on Day 11 due to more than 20% body weight loss. This animal was excluded from all analysis. Data from Day 14-18 were excluded from the analysis due to inconsistencies in data collection methods.

C6 rat glioma cells = assay: Orthotopic syngeneic C6 glioma model; type: in vivo, Sprague Dawley rats
Text: FIG. 14A-14E show the efficacy of Compound 1 in glioblastoma cell lines in vitro and in a glioblastoma rat model (C6). A) In vitro potency of Compound 1 in four different glioblastoma cell lines as evaluated by Realtime-Glo™ assay (C6, and U87 cells) or ATPlite 1Step™ Perkin Elmer (performed by NTRC Oncolines; T98G and A-172 cells). B) Study design overview: C6 rat glioma cells (3×10^5) were implanted into the right entorhinal cortex/subiculum region of male Sprague Dawley rats and tumor burden was assessed 14 days post inoculation using MRI and animals randomized into […] (4) groups (vehicle control, 5 mg/kg, 10 mg/kg, and 20 mg/kg Compound 1) with 4 animals per group. […] C) Body weights were measured every two days. […]
Glioblastoma (GBM) is the most common and highly malignant form of primary brain tumor with a poor prognosis despite advances in treatments. […] Accordingly, the in vitro potency of Compound 1 was examined in four different glioblastoma cell lines as evaluated by Realtime-Glo™ assay (C6, and U87 cells) or ATPlite 1Step™ Perkin Elmer (performed by NTRC Oncolines; T98G and A-172 cells). […] Therefore, the in vivo tumor activity of Compound 1 was next assessed in Sprague Dawley rats implanted with C6 rat glioma cells into the right entorhinal cortex/subiculum region (AP: −7 mm; ML: 4.5 mm, DV: 5 mm). […]

COc1ccccc1-c1nc(CNC(=O)c2ccccc2OC(F)F)n[nH]1 [Compound 1, 2-(difluoromethoxy)-N-[[5-(2-methoxyphenyl)-1H-1,2,4-triazol-3-yl]methyl]benzamide]
Formation of EBI:β-tubulin adducts [1]: inhibited the formation of EBI (N,N′-ethylene-bis(iodoacetamide)):β-tubulin adducts
Response of PDO models (max inhibition class) ([2]; Glioblastoma multiforme, SCLC, ovarian, endometrial, breast, prostate cancer, renal cell carcinoma): responsive (responsive (40-60% max inhibition))
Response of PDO models (max inhibition class) ([2]; colorectal cancer (FIG. 7C)): non-responsive (non-responsive (<40% max inhibition))
Response of PDO models (max inhibition class) ([2]; endometrial cancer, SCLC, sarcoma, breast cancer, NSCLC, ovarian cancer): highly responsive (highly responsive (>60% max inhibition))
Highest TGI (%) (A549 tumors; 75 mg/kg BID oral): 36.61%
Highest TGI (%) (A549 tumors; 150 mg/kg BID oral): 55.43%
Maximum TGI (%), end of the study (A549 tumors; 150 mg/kg dose): 34.64%
Body weight (A549 tumors; 75 and 150 mg/kg): no drug effect
Average tumor growth (A549 tumors; all doses evaluated, FIG. 13B): decreased the average tumor growth at all doses evaluated
Animals still alive at day 60 post-treatment initiation (C6 rat glioma cells; 2 in each treatment group (5, 10, 20 mg/kg)): six
MRI imaging of surviving animals (C6 rat glioma cells; FIG. 14E): reduction in tumor size and tumor fragmentation
